Key:
[1] = molecular target: Recombinant human IDO1 (rhIDO1) (Homo sapiens (Human), UniProt P14902); test: Enzymatic assay for IDO1 activity; assay type: biochemical; conditions: rhIDO1 9 nM, 80 μM TRP, 37° C. 30 min
Procedure: Recombinant human IDO1 (rhIDO1) was expressed and purified from cultures of EC538 strain of E. coli transformed with pREP4 and pQE9-IDO plasmid. Reaction mixes were set up in 384-well microplates containing 50 mM phosphate buffer, 10 mM ascorbic, 10 μM methylene blue, 100 μg/mL catalase, 80 μM TRP, 0.01% Tween 20 (v/v) mixed with rhIDO1 (15 μL) at a final concentration of 9 nM in a total volume of 30 μL assay medium. The plates were incubated at 37° C. for 30 min, and the enzymatic reaction was terminated by adding piperidine (200 mM) and heated at 65° C. for 20 min. Fluorescence intensity was read at λex 400 nm and λem 500 nm. Test compounds were dissolved in 100% DMSO and pre-diluted in assay medium prior to adding rhIDO1. IDO1 inhibition (%) was calculated as
[formula] All experiments were carried out in triplicates, and statistical Analyses were conducted in Prism v5 (Graphpad Software, Inc., La Jolla, Calif., USA). Cell-Based Assay for IDO1 Inhibition

[2] = molecular target: human IDO1 (LLTC-hIDO1 cells) (Homo sapiens, UniProt P14902); test: Cell-based assay for IDO1 inhibition (kynurenine in supernatant); conditions: IDO1-transfected Lewis Lung carcinoma cells, 24 h; read-out: Cellular IC50
Procedure: Culture supernatant from each well was then transferred into a fresh, flat-bottomed 96-well plate, mixed with trichloroacetic acid (10% final concentration) and incubated for 20 min at 60° C. […] The absorbance of each well was read at 480 nm, and the concentration that inhibited 50% cellular enzyme activity was calculated.

[3] = tested on: Lewis Lung carcinoma cells transfected to express IDO1 (LLTC-hIDO1); test: MTT cell viability in the cellular IDO1 assay; assay type: cell-based; conditions: same experiment as cellular IDO1 assay
Procedure: The viability of the cells in each well in the same experiment was determined using the 3-(4,5-dimethylthiazolyl-2-yl)-2,5-diphenyltetrazolium bromide (MTT) colourimetric assay. After the removal of the supernatant for determination of IDO1 inhibition, the cells were incubated with MTT (500 μg/mL) until crystal formation was observed. […] DMSO (100 μL/well) was added to dissolve the crystals and then the absorbance in each well was measured at 570 nm. Cell viability in each well was expressed as a percentage of untreated controls. Triplicate cultures were used for all experiments unless stated otherwise.

[4] = molecular target: human TDO (GL261 cells transfected to over-express full length human TDO) (Homo sapiens (Human), UniProt P48775); test: Cell-based assay for TDO inhibition; conditions: GL261 cells over-expressing human TDO, 24 h; read-out: Cellular IC50
Procedure: Culture supernatant from each well was then transferred into a fresh, flat-bottomed 96-well plate, and kynurenine content was determined as described above for the IDO1 assay, and the concentration that inhibited 50% cellular enzyme activity was calculated.

[5] = tested on: GL261 cells transfected to over-express human TDO; test: MTT cell viability in the cellular TDO assay; assay type: cell-based; conditions: same experiment as cellular TDO assay
Procedure: The viability of the cells in each well in the same experiment was determined using the 3-(4,5-dimethylthiazolyl-2-yl)-2,5-diphenyltetrazolium bromide (MTT) colourimetric assay.

human TDO (GL261 cells transfected to over-express full length human TDO), sequence (P48775 whole entry): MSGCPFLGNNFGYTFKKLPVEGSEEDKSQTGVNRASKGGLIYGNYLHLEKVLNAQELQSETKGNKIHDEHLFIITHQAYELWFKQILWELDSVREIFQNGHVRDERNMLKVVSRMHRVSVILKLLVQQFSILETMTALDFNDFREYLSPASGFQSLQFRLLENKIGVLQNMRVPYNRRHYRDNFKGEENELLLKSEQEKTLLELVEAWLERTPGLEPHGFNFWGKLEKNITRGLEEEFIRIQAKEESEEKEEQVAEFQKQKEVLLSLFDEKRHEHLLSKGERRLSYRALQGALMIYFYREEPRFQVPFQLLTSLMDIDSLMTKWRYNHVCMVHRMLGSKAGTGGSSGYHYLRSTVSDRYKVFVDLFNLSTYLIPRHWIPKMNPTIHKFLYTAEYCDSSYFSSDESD
Recombinant human IDO1 (rhIDO1), sequence (P14902 whole entry): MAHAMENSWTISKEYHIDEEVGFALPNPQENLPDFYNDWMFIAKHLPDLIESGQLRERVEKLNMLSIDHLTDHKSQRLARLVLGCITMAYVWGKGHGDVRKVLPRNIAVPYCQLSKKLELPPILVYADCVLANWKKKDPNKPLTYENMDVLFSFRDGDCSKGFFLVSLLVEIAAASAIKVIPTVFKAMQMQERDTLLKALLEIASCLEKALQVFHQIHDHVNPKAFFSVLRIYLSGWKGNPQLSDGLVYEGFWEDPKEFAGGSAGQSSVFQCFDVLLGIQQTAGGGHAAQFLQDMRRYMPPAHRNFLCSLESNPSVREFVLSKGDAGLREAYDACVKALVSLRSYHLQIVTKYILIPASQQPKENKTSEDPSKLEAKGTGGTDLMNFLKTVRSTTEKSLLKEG

SMILES | IC50 [1] [µM] | IC50 [2] [µM] | IC50 [3] [µM] | IC50 [4] [µM] | IC50 [5] [µM]
Cc1nc2onc(N)c2c(C)c1Cl [Compound 3, 5-Chloro-4,6-dimethylisoxazolo[5,4-b]pyridin-3-amine] | 1 to 10 | < 1 | > 100 | 1 to 10 | > 100
Nc1noc2nc(Cl)ccc12 [Compound 11, 6-Chloroisoxazolo[5,4-b]pyridin-3-amine] | 1 to 10 | < 1 | > 100 | < 1 | > 100
Nc1noc2nc(Cl)c(F)cc12 [Compound 66, 6-Chloro-5-fluoroisoxazolo[5,4-b]pyridin-3-amine] | < 1 | < 1 | > 100 | < 1 | > 100
COc1cccc(Nc2ccc3c(N)noc3n2)c1 [Compound 95, N^6-(3-Methoxyphenyl)isoxazolo[5,4-b]pyridine-3,6-diamine] | > 100 | 1 to 10 | > 100 | – | –
COc1ccc(Nc2ccc3c(N)noc3n2)cc1 [Compound 96, N^6-(4-Methoxyphenyl)isoxazolo[5,4-b]pyridine-3,6-diamine] | > 100 | > 100 | > 100 | – | –

Now from value to compound, other results behind:

IC50 [1] [µM] | IC50 [2] [µM] | IC50 [3] [µM] | IC50 [4] [µM] | SMILES | IC50 [5] [µM]
> 100 | 10 to 100 | > 100 | – | Nc1noc2nc(Oc3ccccc3OC(F)(F)F)ccc12 [Compound 87, 6-(2-(Trifluoromethoxy)phenoxy)isoxazolo[5,4-b]pyridin-3-amine] | –
> 100 | 10 to 100 | > 100 | – | Nc1noc2nc(Oc3cccc(OC(F)(F)F)c3)ccc12 [Compound 88, 6-(3-(Trifluoromethoxy)phenoxy)isoxazolo[5,4-b]pyridin-3-amine] | –
> 100 | 10 to 100 | > 100 | 10 to 100 | Nc1noc2nc(Oc3ccc(OC(F)(F)F)cc3)ccc12 [Compound 89, 6-(4-(Trifluoromethoxy)phenoxy)isoxazolo[5,4-b]pyridin-3-amine] | > 100
> 100 | 10 to 100 | > 100 | – | COc1ccccc1Oc1ccc2c(N)noc2n1 [Compound 90, 6-(2-Methoxyphenoxy)isoxazolo[5,4-b]pyridin-3-amine] | –
> 100 | 10 to 100 | > 100 | – | Nc1noc2nc(Oc3cccc(C(F)(F)F)c3)ccc12 [Compound 93, 6-(3-(Trifluoromethyl)phenoxy)isoxazolo[5,4-b]pyridin-3-amine] | –

From patent US10888567B2, “Inhibitors of tryptophan dioxygenases (IDO1 and TDO) and their use in therapy” (AUCKLAND UNISERVICES LIMITED, priority 2014, dated 2021)
